PubChem BioAssay (NCI)
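Each compound was tested at five concentrations against cells in 96-well plates for 48 hours. TGI: concentration producing complete growth inhibition.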

How the values were obtained:
Assay in all cases: NCI tumour cell line growth inhibition, 48 h
[1] = test system: NCI-H522 lung
[2] = test system: SNB-75 CNS
[3] = test system: SF-268 CNS
[4] = test system: OVCAR-4 ovarian
[5] = test system: UO-31 renal
[6] = test system: KM12 colon
[7] = test system: EKVX NSCLC
[8] = test system: RXF-631 renal
[9] = test system: HCT-15 colon
[10] = test system: SN12C renal
[11] = test system: TK-10 renal
[12] = test system: LXFL 529 NSCLC
[13] = test system: LOX IMVI melanoma
[14] = test system: OVCAR-3 ovarian
[15] = test system: UACC-62 melanoma
[16] = test system: HOP-92 NSCLC
[17] = test system: M19-MEL melanoma
[18] = test system: MOLT-4 leukemia
[19] = test system: DMS 273 small cell lung
[20] = test system: SW-620 colon
[21] = test system: SK-MEL-28 melanoma
[22] = test system: CCRF-CEM leukemia
[23] = test system: SF-539 CNS
[24] = test system: A549 NSCLC
[25] = test system: RPMI-8226 leukemia
[26] = test system: OVCAR-5 ovarian
[27] = test system: HOP-62 NSCLC
[28] = test system: NCI-H460 lung
[29] = test system: UACC-257 melanoma
[30] = test system: SK-MEL-5 melanoma
[31] = test system: ACHN renal
[32] = test system: SNB-19 CNS
[33] = test system: 786-0 renal
[34] = test system: XF 498 CNS
[35] = test system: COLO 205 colon
[36] = test system: OVCAR-8 ovarian
[37] = test system: HL-60(TB) leukemia
[38] = test system: CAKI-1 renal
[39] = test system: SNB-78 CNS
[40] = test system: IGROV1 ovarian
[41] = test system: NCI-H23 lung
[42] = test system: DLD-1 colon
[43] = test system: HCC-2998 colon
[44] = test system: KM20L2 colon
[45] = test system: HOP-18 NSCLC
[46] = test system: M14 melanoma
[47] = test system: HT29 colon
[48] = test system: NCI-H226 lung
[49] = test system: SF-295 CNS
[50] = test system: SK-OV-3 ovarian
[51] = test system: SK-MEL-2 melanoma
[52] = test system: U251 CNS
[53] = test system: MALME-3M melanoma
[54] = test system: K-562 leukemia
[55] = test system: HS 578T breast
[56] = test system: MCF7 breast
[57] = test system: BT-549 breast
[58] = test system: PC-3 prostate
[59] = test system: NCI/ADR-RES ovarian
[60] = test system: SR leukemia
[61] = test system: MDA-MB-231 breast
[62] = test system: RXF 393 renal
[63] = test system: DMS 114 small cell lung
[64] = test system: HCT-116 colon
[65] = test system: A498 renal
[66] = test system: T-47D breast
[67] = test system: DU-145 prostate
[68] = test system: MDA-N
[69] = test system: MDA-MB-435
[70] = test system: P388/ADR leukemia
[71] = test system: P388 leukemia
[72] = test system: SN12K1 renal

SMILES: Cc1ccc(-c2c(N)[n+]([O-])c3ccccc3[n+]2[O-])cc1
- TGI [1]: 3.21 µM
- TGI [2]: 26 µM
- TGI [3]: 73.8 µM
- TGI [4]: 33.1 µM
- TGI [5]: 29.7 µM
- TGI [6]: 26.7 µM
- TGI [7]: 50.2 µM
- TGI [8]: 3.19 µM
- TGI [9]: 15.3 µM
- TGI [10]: 27.8 µM
- TGI [11]: 33 µM
- TGI [12]: 18.3 µM
- TGI [13]: 25.4 µM
- TGI [14]: 30.3 µM
- TGI [15]: 20.1 µM
- TGI [16]: > 100 µM
- TGI [17]: 24.8 µM
- TGI [18]: > 100 µM
- TGI [19]: 29.5 µM
- TGI [20]: 23.3 µM
- TGI [21]: 20 µM
- TGI [22]: > 100 µM
- TGI [23]: 29.3 µM
- TGI [24]: 62.3 µM
- TGI [25]: > 100 µM
- TGI [26]: 32.5 µM
- TGI [27]: 31 µM
- TGI [28]: 47 µM
- TGI [29]: 23.5 µM
- TGI [30]: 24.4 µM
- TGI [31]: 29.1 µM
- TGI [32]: 25.4 µM
- TGI [33]: 28.6 µM
- TGI [34]: 19.5 µM
- TGI [35]: 34.7 µM
- TGI [36]: > 100 µM
- TGI [37]: > 100 µM
- TGI [38]: 9.97 µM
- TGI [39]: 37.1 µM
- TGI [40]: 29.8 µM
- TGI [41]: 19.5 µM
- TGI [42]: 28.7 µM
- TGI [43]: 30.1 µM
- TGI [44]: 38.9 µM
- TGI [45]: 29.1 µM
- TGI [46]: 25.3 µM
- TGI [47]: 31.4 µM
- TGI [48]: 39.6 µM
- TGI [49]: 45.1 µM
- TGI [50]: 35.9 µM
- TGI [51]: 22.9 µM
- TGI [52]: 27.8 µM
- TGI [53]: 10.8 µM
- TGI [54]: > 100 µM

SMILES: CCN(CC)CCn1ccc(=O)c2cc3c(=O)ccn(CCN(CC)CC)c3c(C)c21
- TGI [1]: 20.7 µM
- TGI [2]: 22.7 µM
- TGI [55]: 17.5 µM
- TGI [56]: > 100 µM
- TGI [3]: 17.2 µM
- TGI [4]: 9.43 µM
- TGI [5]: 17.1 µM
- TGI [6]: 2.61 µM
- TGI [7]: 18.8 µM
- TGI [8]: 21.5 µM
- TGI [57]: 29.2 µM
- TGI [9]: 15.6 µM
- TGI [10]: 21.3 µM
- TGI [11]: 26.7 µM
- TGI [58]: 15.9 µM
- TGI [12]: 16.5 µM
- TGI [13]: 7.55 µM
- TGI [59]: 5.2 µM
- TGI [14]: 23.6 µM
- TGI [60]: 3.94 µM
- TGI [15]: 29.2 µM
- TGI [16]: 19.5 µM
- TGI [17]: 25.2 µM
- TGI [18]: > 100 µM
- TGI [19]: 15.1 µM
- TGI [20]: 5.26 µM
- TGI [61]: 18.3 µM
- TGI [62]: 14.1 µM
- TGI [21]: 35.1 µM
- TGI [22]: 29.6 µM
- TGI [23]: 24.2 µM
- TGI [63]: 27.6 µM
- TGI [24]: 14.1 µM
- TGI [25]: 6.8 µM
- TGI [26]: 29.9 µM
- TGI [64]: 9.08 µM
- TGI [27]: 19.7 µM
- TGI [28]: 3.47 µM
- TGI [29]: 33.9 µM
- TGI [30]: 29.1 µM
- TGI [31]: 20.1 µM
- TGI [65]: 29.2 µM
- TGI [32]: 18.3 µM
- TGI [33]: 8.56 µM
- TGI [66]: 50 µM
- TGI [67]: 20.7 µM
- TGI [34]: 21.4 µM
- TGI [35]: 15.3 µM
- TGI [36]: 15.5 µM
- TGI [37]: 3.54 µM
- TGI [38]: 18.3 µM
- TGI [39]: 26.9 µM
- TGI [40]: 22 µM
- TGI [41]: 19.3 µM
- TGI [42]: 7.83 µM
- TGI [43]: 2.93 µM
- TGI [68]: 18 µM
- TGI [44]: 15.4 µM
- TGI [45]: 30 µM
- TGI [46]: 22.5 µM
- TGI [69]: 16.7 µM
- TGI [47]: 12.7 µM
- TGI [48]: 23.8 µM
- TGI [49]: 17.2 µM
- TGI [50]: 15.9 µM
- TGI [51]: 24.5 µM
- TGI [52]: 19.7 µM
- TGI [53]: 29.6 µM
- TGI [54]: 26.8 µM

SMILES: CNC(=O)OCc1nc(SC2CCCCO2)n(C)c1COC(=O)NC (stereo not given)
- TGI [1]: > 100 µM
- TGI [70]: > 100 µM
- TGI [2]: > 100 µM
- TGI [71]: > 100 µM
- TGI [56]: > 100 µM
- TGI [3]: > 100 µM
- TGI [4]: > 100 µM
- TGI [5]: > 100 µM
- TGI [6]: > 100 µM
- TGI [7]: > 100 µM
- TGI [72]: > 100 µM
- TGI [8]: > 100 µM
- TGI [9]: > 100 µM
- TGI [10]: > 100 µM
- TGI [12]: > 100 µM
- TGI [13]: > 100 µM
- TGI [59]: > 100 µM
- TGI [14]: > 100 µM
- TGI [60]: > 100 µM
- TGI [15]: > 100 µM
- TGI [16]: > 100 µM
- TGI [17]: > 100 µM
- TGI [18]: > 100 µM
- TGI [19]: > 100 µM
- TGI [20]: > 100 µM
- TGI [62]: > 100 µM
- TGI [21]: > 100 µM
- TGI [22]: > 100 µM
- TGI [23]: > 100 µM
- TGI [63]: > 100 µM
- TGI [24]: > 100 µM
- TGI [25]: > 100 µM
- TGI [26]: > 100 µM
- TGI [64]: > 100 µM
- TGI [27]: > 100 µM
- TGI [28]: > 100 µM
- TGI [29]: > 100 µM
- TGI [30]: > 100 µM
- TGI [65]: > 100 µM
- TGI [32]: > 100 µM
- TGI [33]: > 100 µM
- TGI [34]: > 100 µM
- TGI [35]: > 100 µM
- TGI [36]: > 100 µM
- TGI [37]: > 100 µM
- TGI [38]: > 100 µM
- TGI [39]: > 100 µM
- TGI [40]: > 100 µM
- TGI [41]: > 100 µM
- TGI [42]: > 100 µM
- TGI [43]: > 100 µM
- TGI [44]: > 100 µM
- TGI [45]: > 100 µM
- TGI [46]: > 100 µM
- TGI [47]: > 100 µM
- TGI [48]: > 100 µM
- TGI [49]: > 100 µM
- TGI [50]: > 100 µM
- TGI [51]: > 100 µM
- TGI [52]: > 100 µM
- TGI [53]: > 100 µM
- TGI [54]: > 100 µM
